Laboratory results published in patent US20140296153A1, “Oligodendrocyte Differentiation” (priority 2011, published 2014).

System: SVZ cells
Assay: TUNEL apoptosis assay in SVZ cell cultures
Type: cell-based, mouse
Details: for TUNEL-positive nuclei: 48 hours
Procedure: Six- to 8-day-old neurospheres were adhered for 48 hours onto poly-D-lysine-coated glass coverslips in SFM devoid of growth factors. Then, to evaluate proliferation/cell death and neuronal differentiation, the neurospheres were allowed to develop for 48 hours or 7 days at 37° C. in the absence or in the presence of hemopressin (100 nM or 1 μM, Proteimax, Cotia, Brazil) and the CB1R antagonist AM 251 (1 μM, Tocris, Ellisville, Mo., USA).
Cell apoptosis was evaluated by the terminal deoxynucleotidyl transferase dUTP nick-end labeling (TUNEL) assay which is a method that detects DNA fragmentation.
SVZ cells treated with Hp for 48 h, in serum free medium devoid of growth factor (differentiation conditions), were rinsed 3×10 min with 0.15 M PBS and permeabilized in 0.25% Triton X-100 for 30 min at RT. Cells were then incubated with terminal deoxynucleotidyl transferase buffer (0.25 U/μl terminal transferase), 6 μM biotinylated dUTP, pH 7.5)) (all from Roche, Basel, Switzerland) for 1 h at 37° C. in a humidified chamber, and then rinsed in TB buffer (300 mM NaCl and 30 mM sodium citrate) for 15 min and in PBS for 5 min. Incubation with Fluorescein was performed for 1 h and nuclei counterstaining and mounting were performed as described previously.
Fluorescence images were recorded using an LSM 510 Meta confocal microscope or an Axioskop 2 Plus fluorescence microscope (both from Carl Zeiss). In all experiments, measurements were performed in the border of SVZ neurospheres where migrating cells form a cell monolayer. […] Percentages of TUNEL or BrdU immunoreactive cells in SVZ cell cultures were calculated from cell counts in five independent microscopic fields in each coverslip with a x40 objective (approximately 200 cells per field). […] For SCCl experiments, the percentage of oligodendrocytic-like responding cells (with a Thromb/Hist ratio above 1.3) was calculated on the basis of one microscopic field per coverslip, containing approximately 100 cells (magnification, ×40).
The effect of Hp on cell death was evaluated after 48 hours of treatment with Hp.

CC(C)C[C@H](NC(=O)[C@H](Cc1ccccc1)NC(=O)[C@H](CCCCN)NC(=O)[C@H](Cc1ccccc1)NC(=O)[C@H](CC(N)=O)NC(=O)[C@@H](NC(=O)[C@@H]1CCCN1)C(C)C)C(=O)N[C@@H](CO)C(=O)N[C@@H](Cc1cnc[nH]1)C(=O)O [Hp, PVNFKFLSH]
toxicity to the cells (TUNEL) (48 hours of treatment): not toxic to the cells
TUNEL-positive nuclei (Hp 100 nM): 10.26±1.69
TUNEL-positive nuclei (Hp 1 μM): 13.25±1.56%
